Holding throughout (assay type): cell-based
The target in one assay is T1, KRAS (Homo sapiens, UniProt P01116).
T1 construct: endogenous in cells; host or cells: KE39 (KRAS amplified) cells
Description: KRASamp MSD assay. The note with it: KE39 (KRAS amplified) cells, treated with test compounds for 24 hr, MSD readout of KRAS degradation. The method, boiled down: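 KRAS-amplified KE39 cells treated with compound for 24 hr, then lysed in RIPA buffer with protease/phosphatase inhibitors. KRAS protein measured by MSD sandwich immunoassay against a recombinant WT KRAS standard curve; DC50 derived from curve fitting of degradation.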

The next assay addresses T2, KRAS G12V (Homo sapiens, UniProt P01116, G12V).
T2 construct: SW620-KRAS (G12V)-HiBit-KI cell (Pharmaron); host or cells: SW620-KRAS (G12V)-HiBit-KI cells (HiBiT knock-in at the endogenous KRAS locus)
Description: KRAS G12V HiBit assay. The note with it: SW620-KRAS (G12V)-HiBit-KI cells, compound treatment for 24 hours, class symbols. The method, boiled down: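 HiBiT-tagged KRAS G12V cells treated 24 h with compound in a 3-fold, 10-point series (0.3 mM DMSO stock); lytic HiBiT reagent with LgBiT added after 15 min room-temperature equilibration. Degradation calculated against 0.1% DMSO high control.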

The next assay concerns the target T3, KRAS G12D (Homo sapiens, UniProt P01116, G12D).
T3 construct: AsPc-1-KRAS (G12D)-HiBit-KI cell (Pharmaron); host or cells: AsPc-1-KRAS (G12D)-HiBit-KI cells (HiBiT knock-in at the endogenous KRAS locus)
The experiment in a line: KRAS G12D HiBit assay. The note with it: AsPc-1-KRAS (G12D)-HiBit-KI cell, compound treatment for 24 hours, absolute DC50. The method, boiled down: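 Cells were treated for 24 h with compounds in a 3-fold, 10-point dilution series from a 0.3 mM DMSO stock, then equilibrated 15 min at room temperature. KRAS G12D HiBiT levels were read by luminescence after lytic Nano-Glo HiBiT reagent with LgBiT; inhibition calculated relative to 0.1% DMSO high control.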

[1] abbreviates: numeric bounds given in place of class symbols.

T1 sequence (P01116 1-188 isoform P01116-2): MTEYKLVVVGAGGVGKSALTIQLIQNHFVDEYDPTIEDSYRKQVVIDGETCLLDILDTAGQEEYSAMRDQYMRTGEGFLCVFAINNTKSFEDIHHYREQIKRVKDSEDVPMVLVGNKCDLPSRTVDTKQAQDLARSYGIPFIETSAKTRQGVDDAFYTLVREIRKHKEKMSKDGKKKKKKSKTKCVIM
T3 sequence (P01116 1-188 isoform P01116-2 G12D): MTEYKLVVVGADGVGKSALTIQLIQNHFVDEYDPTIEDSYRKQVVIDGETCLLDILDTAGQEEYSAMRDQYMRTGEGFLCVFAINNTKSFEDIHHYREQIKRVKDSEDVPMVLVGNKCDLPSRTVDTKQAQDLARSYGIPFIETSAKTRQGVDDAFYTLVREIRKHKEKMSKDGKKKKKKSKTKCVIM
T2 sequence (P01116 1-188 isoform P01116-2 G12V): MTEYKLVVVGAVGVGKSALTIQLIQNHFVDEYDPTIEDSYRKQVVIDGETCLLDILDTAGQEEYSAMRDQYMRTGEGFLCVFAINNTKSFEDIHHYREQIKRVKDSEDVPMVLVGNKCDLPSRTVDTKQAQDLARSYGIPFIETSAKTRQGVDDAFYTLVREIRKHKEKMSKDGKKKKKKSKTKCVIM

As to `C#Cc1c(F)ccc2cc(O)cc(-c3ncc4c(N5CCC[C@@](C)(O)C5)nc(OC[C@@]56CCCN5[C@H](COC(=O)N5CCC(OC7CCN(c8ccc9c(c8)n(C)c(=O)n9C8CCC(=O)NC8=O)CC7)CC5)CC6)nc4c3F)c12` (stereo partly drawn) [Compound 155, ((3S,7aS)-7a-(((7-(8-Ethynyl-7-fluoro-3-hydroxynaphthalen-1-yl)-8-fluoro-4-((R)-3-hydroxy-3-methylpiperidin-1-yl)pyrido[4,3-d]pyrimidin-2-yl)oxy)methyl)hexahydro-1H-pyrrolizin-3-yl)methyl 4-((1-(1-(2,6-dioxopiperidin-3-yl)-3-methyl-2-oxo-2,3-dihydro-1H-benzo[d]imidazol-5-yl)piperidin-4-yl)oxy)piperidine-1-carboxylate], the DC50 at KRAS is below 1 nM; on KRAS G12V, below 10 nM; on KRAS G12D (class symbols) it was below 100 nM.

Regarding `CCc1c(F)ccc2cc(O)cc(-c3ncc4c(N5CCC[C@@](C)(O)C5)nc(OC[C@]56CCCN5[C@H](COC(=O)N5CCC(N7CCC(c8ccc9c(c8)n(C)c(=O)n9C8CCC(=O)NC8=O)C7)CC5)CC6)nc4c3F)c12` (stereo partly drawn) [Compound 337, ((3S,7aR)-7a-(((7-(8-ethyl-7-fluoro-3-hydroxynaphthalen-1-yl)-8-fluoro-4-((R)-3-hydroxy-3-methylpiperidin-1-yl)pyrido[4,3-d]pyrimidin-2-yl)oxy)methyl)hexahydro-1H-pyrrolizin-3-yl)methyl 4-(3-(1-(2,6-dioxopiperidin-3-yl)-3-methyl-2-oxo-2,3-dihydro-1H-benzo[d]imidazol-5-yl)pyrrolidin-1-yl)piperidine-1-carboxylate], the DC50 was 1 to 10 nM on KRAS, 10 to 100 nM on KRAS G12V and below 100 nM at KRAS G12D (class symbols).

In the case of `C#Cc1c(F)ccc2cc(O)cc(-c3ccc4c(N5CCC[C@@](C)(O)C5)nc(OCC5(CN6CCN(CC7CCN(c8ccc9c(c8)n(C)c(=O)n9C8CCC(=O)NC8=O)CC7)CC6)CC5)nc4c3F)c12` (stereo partly drawn) [Compound 11], the DC50 on KRAS is 1 to 10 nM; on KRAS G12V it was below 10 nM; on KRAS G12D (class symbols), above 300 nM.

As to `Cn1c(=O)n(C2CCC(=O)NC2=O)c2ccc(C3CCN(CC4CCN(C(=O)OC[C@@H]5CC[C@]6(COc7nc(N8CCC[C@@](C)(O)C8)c8cnc(-c9cc(O)cc%10ccc(F)c(Cl)c9%10)c(F)c8n7)CCCN56)CC4)CC3)cc21` (stereo partly drawn) [Compound 409, ((3S,7aS)-7a-(((7-(8-chloro-7-fluoro-3-hydroxynaphthalen-1-yl)-8-fluoro-4-((R)-3-hydroxy-3-methylpiperidin-1-yl)pyrido[4,3-d]pyrimidin-2-yl)oxy)methyl)hexahydro-1H-pyrrolizin-3-yl)methyl 4-((4-(1-(2,6-dioxopiperidin-3-yl)-3-methyl-2-oxo-2,3-dihydro-1H-benzo[d]imidazol-5-yl)piperidin-1-yl)methyl)piperidine-1-carboxylate], the DC50 on KRAS was below 1 nM; at KRAS G12V, below 10 nM; on KRAS G12D (class symbols) it was below 100 nM.

Take `CCc1c(F)ccc2cc(O)cc(-c3ncc4c(N5CCC[C@@](C)(O)C5)nc(OC[C@@]56CCCN5[C@H](COC(=O)N5CCC7(CC5)CC(N5CCC(c8ccc9c(c8)n(C)c(=O)n9C8CCC(=O)NC8=O)CC5)C7)CC6)nc4c3F)c12` (stereo partly drawn) [Compound 159, ((3S,7aS)-7a-(((7-(8-Ethyl-7-fluoro-3-hydroxynaphthalen-1-yl)-8-fluoro-4-((R)-3-hydroxy-3-methylpiperidin-1-yl)pyrido[4,3-d]pyrimidin-2-yl)oxy)methyl)hexahydro-1H-pyrrolizin-3-yl)methyl2-(4-(1-(2,6-dioxopiperidin-3-yl)-3-methyl-2-oxo-2,3-dihydro-1H-benzo[d]imidazol-5-yl)piperidin-1-yl)-7-azaspiro[3.5]nonane-7-carboxylate]: the DC50 on KRAS was below 1 nM; on KRAS G12V, below 10 nM; on KRAS G12D (class symbols), below 100 nM.

With `C#Cc1c(F)ccc2cc(O)cc(-c3ncc4c(N5CCC[C@@](C)(O)C5)nc(OC[C@@]56CCCN5[C@H](COC(=O)N5CCC(N7CC(N8CCC(c9ccc%10c(c9)n(C)c(=O)n%10C9CCC(=O)NC9=O)CC8)C7)CC5)CC6)nc4c3F)c12` (stereo partly drawn) [Compound 414, ((3S,7aS)-7a-(((7-(8-ethynyl-7-fluoro-3-hydroxynaphthalen-1-yl)-8-fluoro-4-((R)-3-hydroxy-3-methylpiperidin-1-yl)pyrido[4,3-d]pyrimidin-2-yl)oxy)methyl)hexahydro-1H-pyrrolizin-3-yl)methyl 4-(3-(4-(1-(2,6-dioxopiperidin-3-yl)-3-methyl-2-oxo-2,3-dihydro-1H-benzo[d]imidazol-5-yl)piperidin-1-yl)azetidin-1-yl)piperidine-1-carboxylate], the figures for the DC50 at KRAS, at KRAS G12V and at KRAS G12D (class symbols) were at least 10 nM, 10 to 100 nM and below 100 nM, respectively.

For `CCc1c(F)ccc2cc(O)cc(-c3ncc4c(N5CCC[C@@](C)(O)C5)nc(OC[C@]56CCCN5[C@H](COC(=O)N5CCC(c7cccc8c7n(C)c(=O)n8C7CCC(=O)NC7=O)CC5)CC6)nc4c3F)c12` (stereo partly drawn) [Compound 310, ((3S,7aR)-7a-(((7-(8-ethyl-7-fluoro-3-hydroxynaphthalen-1-yl)-8-fluoro-4-((R)-3-hydroxy-3-methylpiperidin-1-yl)pyrido[4,3-d]pyrimidin-2-yl)oxy)methyl)hexahydro-1H-pyrrolizin-3-yl)methyl 4-(1-(2,6-dioxopiperidin-3-yl)-3-methyl-2-oxo-2,3-dihydro-1H-benzo[d]imidazol-4-yl)piperidine-1-carboxylate], the DC50 is 1 to 10 nM on KRAS, above 100 nM on KRAS G12V and above 100 nM on KRAS G12D (setting [1]).

Consider `C#Cc1c(F)ccc2cc(O)cc(-c3ncc4c(N5CCC[C@@](C)(O)C5)nc(OC[C@@]56CCCN5[C@H](COC(=O)N5CC7(CCC(N8CCC(c9ccc%10c(c9)n(C)c(=O)n%10C9CCC(=O)NC9=O)CC8)CC7)C5)CC6)nc4c3F)c12` (stereo partly drawn) [Compound 420, ((3S,7aS)-7a-(((7-(8-ethynyl-7-fluoro-3-hydroxynaphthalen-1-yl)-8-fluoro-4-((R)-3-hydroxy-3-methylpiperidin-1-yl)pyrido[4,3-d]pyrimidin-2-yl)oxy)methyl)hexahydro-1H-pyrrolizin-3-yl)methyl 7-(4-(1-(2,6-dioxopiperidin-3-yl)-3-methyl-2-oxo-2,3-dihydro-1H-benzo[d]imidazol-5-yl)piperidin-1-yl)-2-azaspiro[3.5]nonane-2-carboxylate], for which the DC50 at KRAS was 1 to 10 nM; on KRAS G12V, 10 to 100 nM; on KRAS G12D (class symbols), below 100 nM.

As to `CCc1c(F)ccc2cc(O)cc(-c3ncc4c(N5CCC[C@H](CO)C5)nc(OC[C@@]56CCCN5[C@H](COC(=O)N5CCC(CN7CCC(c8ccc9c(c8)n(C)c(=O)n9C8CCC(=O)NC8=O)CC7)CC5)CC6)nc4c3F)c12` (stereo partly drawn) [Compound 339, ((3S,7aS)-7a-(((7-(8-ethyl-7-fluoro-3-hydroxynaphthalen-1-yl)-8-fluoro-4-((S)-3-(hydroxymethyl)piperidin-1-yl)pyrido[4,3-d]pyrimidin-2-yl)oxy)methyl)hexahydro-1H-pyrrolizin-3-yl)methyl 4-((4-(1-(2,6-dioxopiperidin-3-yl)-3-methyl-2-oxo-2,3-dihydro-1H-benzo[d]imidazol-5-yl)piperidin-1-yl)methyl)piperidine-1-carboxylate], the DC50 at KRAS was 1 to 10 nM; on KRAS G12V it was above 100 nM; on KRAS G12D (setting [1]), above 100 nM.

The record behind these values is patent US12599672B2, “KRAS proteolysis targeting chimeras” (PAQ Therapeutics Inc., priority 2023, dated 2026).
